From patent US20130029928A1 (priority 2010, published 2013)
Where two headings read alike, the source gives them in different places.

Experiment: Phase I study CXR1002-001: plasma pharmacokinetics (LC-MS/MS)
Assay type: in vivo, human
Conditions: human, plasma, oral; for concentration at 843 h / concentration at 844 h / concentration at 864 h / concentration at 3 h / concentration at 4 h / concentration at 24 h / concentration at 168 h / concentration at 170 h / concentration at 171 h / concentration at 192 h / concentration at 336 h / concentration at 338 h / concentration at 339 h / concentration at 340 h / concentration at 360 h / concentration at 504 h / concentration at 506 h / concentration at 507 h / concentration at 508 h / concentration at 528 h / concentration at 672 h / concentration at 674 h / concentration at 675 h / concentration at 676 h / concentration at 696 h / concentration at 840 h / concentration at 842 h / concentration at 2 h / concentration at 172 h: read-out: Concentration; for concentration at 864 h: 864 hr (Day 37); for concentration at 24 h: 24 hr (Day 2); for concentration at 168 h: 168 hr (Day 8); for concentration at 336 h: 336 hr (Day 15); for concentration at 504 h: 504 hr (Day 22); for concentration at 528 h: 528 hr (Day 23); for concentration at 672 h: 672 hr (Day 29); for concentration at 840 h: 840 hr (Day 36)
Text: PK samples, PD (fasting) samples, blood glucose, and blood triglyceride samples, were taken over a 6-week period.
Dose limiting toxicity (DLT) will be based on the toxicity assessments over the first 3-week period of the repeat dosing schedule. PK samples (single blood sample) were taken on the following basis: • Every 6 weeks during the repeat dosing phase • If dosing is interrupted or stopped, samples will be taken at intervals according to patient convenience • PK sampling for safety evaluation may take place at any time, as clinically indicated
Plasma samples were collected after the single 50 mg dose at the following timepoints: Pre-dose, and then 0.25, 0.5, 0.75, 1, 1.5, 2, 3, 4, 6, 24, 48, and 72 hours after administration and then once weekly at weeks 2, 3, 4, 5, and 6 (days 8, 15, 22, 29, and 36). For patients treated with the weekly repeat dose, plasma samples were collected at the following timepoints: Pre-dose and then 2, 3, 4 and 24 hours after administration for a total of 6 weeks. Thereafter a single sample was collected every 6 weeks for monitoring of exposure during long term treatment. Plasma samples were processed at site and stored at −80° C. prior to batch shipment to the analytical laboratory.

[1] = 300 mg, Patient 014 Dose 300 mg
[2] = 450 mg, Patient 015 Dose 450 mg
[3] = 450 mg, Patient 016 Dose 450 mg
[4] = 450 mg, Patient 017 Dose 450 mg
[5] = 600 mg, Patient 018, 600 mg, person
[6] = 600 mg, Patient 020, 600 mg, person
[7] = 600 mg, Patient 021, 600 mg, person

O=C(O)C(F)(F)C(F)(F)C(F)(F)C(F)(F)C(F)(F)C(F)(F)C(F)(F)F [CXR1002]
concentration at 843 h [1]: 520 µM
concentration at 844 h [1]: 563 µM
concentration at 864 h [1]: 488 µM
concentration at 12 week (300 mg, Patient 014 Dose 300 mg, Week 12): 890 µM
concentration at 18 week (300 mg, Patient 014 Dose 300 mg, Week 18): 980 µM
concentration at 3 h [2]: 231 µM
concentration at 4 h [2]: 217 µM
concentration at 24 h [2]: 126 µM
concentration at 168 h [2]: 138 µM
concentration at 170 h [2]: 325 µM
concentration at 171 h [2]: 314 µM
concentration at 192 h (450 mg, Patient 015 Dose 450 mg, 192 hr (Day 9)): 294 µM
concentration at 336 h [2]: 286 µM
concentration at 338 h [2]: 463 µM
concentration at 339 h [2]: 393 µM
concentration at 340 h [2]: 424 µM
concentration at 360 h (450 mg, Patient 015 Dose 450 mg, 360 hr (Day 16)): 412 µM
concentration at 504 h [2]: 387 µM
concentration at 506 h [2]: 579 µM
concentration at 507 h [2]: 548 µM
concentration at 508 h [2]: 513 µM
concentration at 528 h [2]: 551 µM
concentration at 672 h [2]: 544 µM
concentration at 674 h [2]: 622 µM
concentration at 675 h [2]: 633 µM
concentration at 676 h [2]: 675 µM
concentration at 696 h (450 mg, Patient 015 Dose 450 mg, 696 hr (Day 30)): 708 µM
concentration at 840 h [2]: 575 µM
concentration at 842 h [2]: 703 µM
concentration at 843 h [2]: 655 µM
concentration at 844 h [2]: 801 µM
concentration at 864 h [2]: 592 µM
concentration at 2 h [3]: 108 µM
concentration at 3 h [3]: 126 µM
concentration at 4 h [3]: 88.1 µM
concentration at 24 h [3]: 164 µM
concentration at 170 h [3]: 328 µM
concentration at 171 h [3]: 255 µM
concentration at 172 h [3]: 244 µM
concentration at 192 h (450 mg, Patient 016 Dose 450 mg, 192 hr (Day 9)): 348 µM
concentration at 336 h [3]: 287 µM
concentration at 338 h [3]: 418 µM
concentration at 339 h [3]: 454 µM
concentration at 340 h [3]: 442 µM
concentration at 360 h (450 mg, Patient 016 Dose 450 mg, 360 hr (Day 16)): 471 µM
concentration at 504 h [3]: 546 µM
concentration at 506 h [3]: 693 µM
concentration at 507 h [3]: 721 µM
concentration at 508 h [3]: 698 µM
concentration at 528 h [3]: 692 µM
concentration at 672 h [3]: 605 µM
concentration at 674 h [3]: 907 µM
concentration at 675 h [3]: 745 µM
concentration at 676 h [3]: 732 µM
concentration at 696 h (450 mg, Patient 016 Dose 450 mg, 696 hr (Day 30)): 871 µM
concentration at 2 h [4]: 99.7 µM
concentration at 3 h [4]: 136 µM
concentration at 4 h [4]: 163 µM
concentration at 336 h [4]: 216 µM
concentration at 338 h [4]: 325 µM
concentration at 339 h [4]: 342 µM
concentration at 360 h (450 mg, Patient 017 Dose 450 mg, 360 hr): 258 µM
concentration at 672 h [4]: 404 µM
concentration at 674 h [4]: 451 µM
concentration at 675 h [4]: 497 µM
concentration at 676 h [4]: 485 µM
concentration at 696 h (450 mg, Patient 017 Dose 450 mg, 696 hr): 483 µM
concentration at 2 h [5]: 339 µM
concentration at 3 h [5]: 280 µM
concentration at 4 h [5]: 248 µM
concentration at 24 h [5]: 213 µM
concentration at 168 h [5]: 181 µM
concentration at 170 h [5]: 398 µM
concentration at 171 h [5]: 407 µM
concentration at 192 h (600 mg, Patient 018, 600 mg, person, 192 hr (day 9)): 386 µM
concentration at 336 h [5]: 356 µM
concentration at 338 h [5]: 551 µM
concentration at 339 h [5]: 563 µM
concentration at 340 h [5]: 591 µM
concentration at 360 h (600 mg, Patient 018, 600 mg, person, 360 hr (Day 16)): 554 µM
concentration at 2 h [6]: 208 µM
concentration at 4 h [6]: 180 µM
concentration at 24 h [6]: 413 µM
concentration at 168 h [6]: 125 µM
concentration at 170 h [6]: 327 µM
concentration at 171 h [6]: 310 µM
concentration at 172 h [6]: 279 µM
concentration at 192 h (600 mg, Patient 020, 600 mg, person, 192 hr (day 9)): 268 µM
concentration at 336 h [6]: 272 µM
concentration at 338 h [6]: 474 µM
concentration at 339 h [6]: 434 µM
concentration at 340 h [6]: 438 µM
concentration at 360 h (600 mg, Patient 020, 600 mg, person, 360 hr (Day 16)): 410 µM
concentration at 504 h [6]: 441 µM
concentration at 506 h [6]: 477 µM
concentration at 507 h [6]: 526 µM
concentration at 508 h [6]: 536 µM
concentration at 528 h [6]: 563 µM
concentration at 672 h [6]: 540 µM
concentration at 674 h [6]: 547 µM
concentration at 675 h [6]: 603 µM
concentration at 676 h [6]: 652 µM
concentration at 696 h (600 mg, Patient 020, 600 mg, person, 696 hr (Day 30)): 615 µM
concentration at 840 h [6]: 582 µM
concentration at 842 h [6]: 700 µM
concentration at 843 h [6]: 764 µM
concentration at 844 h [6]: 770 µM
concentration at 864 h [6]: 703 µM
concentration at 2 h [7]: 77.2 µM
concentration at 3 h [7]: 121 µM
concentration at 24 h [7]: 203 µM
concentration at 168 h [7]: 218 µM
concentration at 170 h [7]: 504 µM
concentration at 171 h [7]: 417 µM
concentration at 172 h [7]: 451 µM
